Measurements: patent US12011444B2, “N-substituted indole derivatives as PGE2 receptor modulators” (Idorsia Pharmaceuticals Ltd, priority 2015, dated 2024)

What was measured:
PTGER2 (EP2) = PTGER2 (EP2) (Homo sapiens (Human), UniProt P43116); experiment: hEP2 b-arrestin assay (PathHunter HEK 293 PTGER2 b-arrestin cells); format: cell-based; details: antagonistic activity on hEP2; mean where measured multiple times
In short: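 Readout is β-galactosidase complementation luminescence, expressed as percent of DMSO control (duplicates). PathHunter HEK293 EP2/β-arrestin 2 cells, grown 24 h, received compound for 15 min at 37 °C before a 120 min challenge with PGE2 at 5 μM final, followed by 1 h detection at room temperature.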

PTRGER4 (EP4) = PTRGER4 (EP4) (Homo sapiens (Human), UniProt P35408); experiment: hEP4 b-arrestin assay (PathHunter HEK 293 PTGER4 b-arrestin cells); format: cell-based; details: antagonistic activity on hEP4; mean where measured multiple times
Sequence of PTRGER4 (EP4) (P35408 whole entry, looked up, the tested form may be a part): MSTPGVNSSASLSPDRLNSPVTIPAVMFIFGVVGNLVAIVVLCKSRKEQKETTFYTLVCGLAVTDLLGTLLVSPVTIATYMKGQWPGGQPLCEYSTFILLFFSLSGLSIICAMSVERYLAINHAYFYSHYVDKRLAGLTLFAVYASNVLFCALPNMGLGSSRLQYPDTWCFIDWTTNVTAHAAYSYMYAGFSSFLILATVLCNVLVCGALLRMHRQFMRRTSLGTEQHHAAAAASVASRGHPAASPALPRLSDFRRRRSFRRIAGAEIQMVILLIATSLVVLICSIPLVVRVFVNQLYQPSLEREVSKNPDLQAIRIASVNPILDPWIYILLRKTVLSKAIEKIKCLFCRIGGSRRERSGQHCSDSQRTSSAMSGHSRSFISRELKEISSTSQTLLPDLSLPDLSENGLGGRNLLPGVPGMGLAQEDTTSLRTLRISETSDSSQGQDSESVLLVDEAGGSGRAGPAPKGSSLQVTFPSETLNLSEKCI
In short: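 Antagonist mode: compound is given 15 min at 37 °C, then 20 nM (final) PGE2 for 120 min, in HEK293 cells stably expressing EP4 fused to ProLink and β-arrestin 2 fused to EA. Recruitment read as β-gal luminescence after 1 h reagent at room temperature, as percent of DMSO control.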

Sequence of PTGER2 (EP2) (P43116 whole entry): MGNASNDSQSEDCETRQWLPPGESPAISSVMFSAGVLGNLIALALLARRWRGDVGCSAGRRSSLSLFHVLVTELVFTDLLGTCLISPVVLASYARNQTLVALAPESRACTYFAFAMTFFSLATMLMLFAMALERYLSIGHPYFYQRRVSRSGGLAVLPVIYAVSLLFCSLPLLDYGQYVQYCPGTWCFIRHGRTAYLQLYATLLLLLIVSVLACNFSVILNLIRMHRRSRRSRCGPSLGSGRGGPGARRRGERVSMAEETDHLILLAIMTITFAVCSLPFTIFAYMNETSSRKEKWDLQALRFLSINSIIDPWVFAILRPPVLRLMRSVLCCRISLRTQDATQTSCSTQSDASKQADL

| Structure (SMILES) | IC50 (PTGER2 (EP2)) [nM] | IC50 (PTRGER4 (EP4)) [nM] |
| --- | --- | --- |
| COc1ccc(F)c2c1cc(C)n2CCNc1cc(-c2ccc3c(c2)CN(C)C3=O)ncn1 [compound 204, 5-{6-[2-(7-Fluoro-4-methoxy-2-methyl-indol-1-yl)-ethylamino]-pyrimidin-4-yl}-2-methyl-2,3-dihydro-isoindol-1-one] | 31 | 182 |
| COc1cc(F)cc2c1cc(C)n2CCNc1cc(-c2ccc(-c3ccns3)cc2)ncn1 [compound 205, [2-(6-Fluoro-4-methoxy-2-methyl-indol-1-yl)-ethyl]-[6-(4-isothiazol-5-yl-phenyl)-pyrimidin-4-yl]-amine] | 44 | 334 |
| CCN1Cc2cc(-c3cc(NCCn4c(C)cc5c(C)ccc(F)c54)ncn3)ccc2C1=O [compound 206] | 88 | 740 |
| COc1ccc(F)c2c1cc(C)n2CCNc1cc(-c2ccc(-c3nnc[nH]3)cc2)ncn1 [compound 208, [2-(7-Fluoro-4-methoxy-2-methyl-indol-1-yl)-ethyl]-{6-[4-(4H-[1,2,4]triazol-3-yl)-phenyl]-pyrimidin-4-yl}-amine] | 11 | 102 |
| CNc1cc(-c2cc(NCCn3c(C)cc4c(C)cc(F)cc43)ncn2)ccc1C(=O)O [compound 209] | 3 | 123 |
| CNc1cc(-c2cc(NCCn3c(C)cc4c(F)ccc(C)c43)ncn2)ccc1C(=O)O [compound 211] | 2 | 394 |
| CCNc1cc(-c2cc(NCCn3c(C)cc4c(Cl)cccc43)ncn2)ccc1C(=O)O [compound 212] | 1 | 173 |
| CNc1cc(-c2cc(NCCn3c(C)cc4c(OC)cccc43)ncn2)ccc1C(=O)O [compound 213] | 3 | 204 |
| CSc1cc(-c2cc(NCCn3c(C)cc4c(C)ccc(Cl)c43)ncn2)ccc1C(=O)O [compound 217] | 25 | 381 |
| CSc1cc(-c2cc(NCCn3c(C)cc4c(Cl)ccc(Cl)c43)ncn2)ccc1C(=O)O [compound 221] | 9 | 902 |
| Cc1ccc(F)c2c1cc(C)n2CCNc1cc(-c2cc(Cl)c(C(=O)O)c(Cl)c2)ncn1 [compound 222] | 42 | 232 |
| CCc1cc(-c2cc(NCCn3c(C)cc4c(OC)cccc43)ncn2)ccc1C(=O)O [compound 223] | 8 | 702 |
| CCOc1cc(-c2cc(NCCn3c(C)cc4c(Cl)cccc43)ncn2)ccc1C(=O)O [compound 234] | 3 | 249 |
| CCNc1cc(-c2cc(NCCn3c(C)cc4c(F)ccc(F)c43)ncn2)ccc1C(=O)O [compound 243] | 2 | 281 |
| CCNc1cc(-c2cc(NCCn3c(C)cc4c(C)cc(F)cc43)ncn2)ccc1C(=O)O [compound 244] | 2 | 86 |
| CCNc1cc(-c2cc(NCCn3c(C)cc4c(C)ccc(F)c43)ncn2)ccc1C(=O)O [compound 245] | 9 | 71 |
| CCNc1cc(-c2cc(NCCn3c(C)cc4c(F)ccc(C)c43)ncn2)ccc1C(=O)O [compound 246] | 2 | 507 |
| CCNc1cc(-c2cc(NCCn3c(C)cc4cccc(OC)c43)ncn2)ccc1C(=O)O [compound 247] | 32 | 681 |
| CNc1cc(-c2cc(NCCn3c(C)cc4c(OC)ccc(Cl)c43)ncn2)ccc1C(=O)O [compound 250] | 3 | 103 |
| CNc1cc(-c2cc(NCCn3c(C)cc4c(OC)ccc(F)c43)ncn2)ccc1C(=O)O [compound 251] | 6 | 37 |
| CNc1cc(-c2cc(NCCn3c(C)cc4c(F)ccc(OC)c43)ncn2)ccc1C(=O)O [compound 252] | 57 | 660 |
| COc1cc(-c2cc(NCCn3c(C)cc4c(OC)cccc43)ncn2)cc(C)c1C(=O)O [compound 254] | 64 | 999 |
| COc1cc(-c2cc(NCCn3c(C)cc4c(OC)ccc(F)c43)ncn2)ccc1C(=O)O [compound 260] | 28 | 536 |
| Cc1ccc2c(c1)cc(C)n2CCNc1cc(-c2ccc(C(=O)O)c(CC(C)C)c2)ncn1 [compound 262] | 35 | 925 |
| CCc1cc(-c2cc(NCCn3c(C)cc4c(C)cc(F)cc43)ncn2)cc(Cl)c1C(=O)O [compound 264] | 71 | 287 |
| Cc1cc2c(Cl)cccc2n1CCNc1cc(-c2ccc(C(=O)O)c(CC(C)C)c2)ncn1 [compound 268] | 11 | 635 |

Results, then the molecule that gave them:

| IC50 (PTGER2 (EP2)) [nM] | IC50 (PTRGER4 (EP4)) [nM] | Structure (SMILES) |
| --- | --- | --- |
| 472 | 991 | CCOc1cc(-c2cc(NCCn3c(C)cc4c(C)cc(F)c(Cl)c43)ncn2)ccc1C(=O)O [compound 210] |
| 139 | 972 | COc1c(-c2cc(NCCn3c(C)cc4c(OC)ccc(F)c43)ncn2)csc1C(=O)O [compound 215] |
| 2 | 22 | CCOc1cc(-c2cc(NCCn3c(C)cc4c(OC)cccc43)ncn2)sc1C(=O)O [compound 216] |
| 18 | 519 | Cc1cc(-c2cc(NCCn3c(C)cc4c(C)ccc(F)c43)ncn2)cc(F)c1C(=O)O [compound 218] |
| 41 | 454 | CCc1cc(-c2cc(NCCn3c(C)cc4c(C)cc(F)cc43)ncn2)ccc1C(=O)O [compound 219] |
| 18 | 216 | CCc1cc(-c2cc(NCCn3c(C)cc4c(C)ccc(F)c43)ncn2)ccc1C(=O)O [compound 220] |
| 4 | 20 | CCOc1cc(-c2cc(NCCn3c(C)cc4c(C)cc(Cl)cc43)ncn2)sc1C(=O)O [compound 224] |
| 25 | 124 | CCc1cc(-c2cc(NCCn3c(C)cc4c(OC)ccc(Cl)c43)ncn2)sc1C(=O)O [compound 225] |
| 2 | 22 | CCOc1cc(-c2cc(NCCn3c(C)cc4c(C)ccc(F)c43)ncn2)sc1C(=O)O [compound 227] |
| 4 | 35 | CCOc1cc(-c2cc(NCCn3c(C)cc4cc(C)cc(F)c43)ncn2)sc1C(=O)O [compound 228] |
| 2 | 26 | CCOc1cc(-c2cc(NCCn3c(C)cc4c(C)cc(F)cc43)ncn2)sc1C(=O)O [compound 229] |
| 5 | 13 | CCc1cc(-c2cc(NCCn3c(C)cc4c(OC)ccc(F)c43)ncn2)sc1C(=O)O [compound 230] |
| 185 | 133 | CCc1cc(-c2cc(NCCn3c(C)cc4cc(OC)cc(F)c43)ncn2)sc1C(=O)O [compound 231] |
| 21 | 732 | COc1cc(-c2cc(NCCn3c(C)cc4c(C)cc(F)cc43)ncn2)ccc1C(=O)O [compound 232] |
| 52 | 317 | COc1ccc(F)c2c1cc(C)n2CCNc1cc(-c2ccc(C(=O)O)c(C)c2)ncn1 [compound 233] |
| 2 | 60 | CCOc1cc(-c2cc(NCCn3c(C)cc4c(F)c(F)ccc43)ncn2)sc1C(=O)O [compound 235] |
| 9 | 413 | CCOc1cc(-c2cc(NCCn3c(C)cc4ccc(Cl)c(Cl)c43)ncn2)sc1C(=O)O [compound 236] |

| IC50 (PTGER2 (EP2)) [nM] | IC50 (PTRGER4 (EP4)) [nM] | Structure (SMILES) |
| --- | --- | --- |
| 13 | 68 | CCOc1cc(-c2cc(NCCn3c(C)cc4cc(Cl)cc(F)c43)ncn2)sc1C(=O)O [compound 237] |
| 5 | 40 | CCOc1cc(-c2cc(NCCn3c(C)cc4c(Cl)cc(Cl)cc43)ncn2)sc1C(=O)O [compound 238] |
| 1 | 19 | CCOc1cc(-c2cc(NCCn3c(C)cc4c(Cl)cc(F)cc43)ncn2)sc1C(=O)O [compound 239] |
| 2 | 10 | CCOc1cc(-c2cc(NCCn3c(C)cc4c(Cl)ccc(F)c43)ncn2)sc1C(=O)O [compound 240] |
| 32 | 128 | CCc1cc(-c2cc(NCCn3c(C)cc4cc(C)cc(F)c43)ncn2)sc1C(=O)O [compound 241] |
| 111 | 216 | CCc1cc(-c2cc(NCCn3c(C)cc4cc(Cl)cc(F)c43)ncn2)sc1C(=O)O [compound 242] |
| 3 | 9 | CCOc1cc(-c2cc(NCCn3c(C#N)cc4c(C)cc(F)cc43)ncn2)sc1C(=O)O [compound 249] |
| 12 | 896 | CCOc1cc(-c2cc(NCCn3c(C)cc4ccc(OC)cc43)ncn2)ccc1C(=O)O [compound 255] |
| 3 | 29 | CCOc1cc(-c2cc(NCCn3c(C)cc4c(OC)ccc(Cl)c43)ncn2)sc1C(=O)O [compound 256] |
| 2 | 6 | CCOc1cc(-c2cc(NCCn3c(C)cc4c(OC)cc(F)cc43)ncn2)sc1C(=O)O [compound 257] |
| 37 | 127 | CCOc1cc(-c2cc(NCCn3c(C)cc4cc(OC)cc(F)c43)ncn2)sc1C(=O)O [compound 259] |
| 12 | 71 | CCOc1cc(-c2cc(NCCn3c(C)cc4c(OC)ccc(C)c43)ncn2)sc1C(=O)O [compound 261] |
| 90 | 587 | CCCc1cc(-c2cc(NCCn3c(C)cc4cc(Cl)cc(F)c43)ncn2)ccc1C(=O)O [compound 263] |
| 33 | 491 | CCc1cc(-c2cc(NCCn3c(C)cc4c(C)ccc(F)c43)ncn2)cc(F)c1C(=O)O [compound 265] |
| 53 | 953 | CCCc1cc(-c2cc(NCCn3c(C)cc4cc(C)cc(Cl)c43)ncn2)ccc1C(=O)O [compound 266] |
| 26 | 317 | CCCc1cc(-c2cc(NCCn3c(C)cc4cc(C)cc(F)c43)ncn2)ccc1C(=O)O [compound 267] |
